Experimental data as given in patent US10584128B2, “Bicyclic dihydropyrimidine-carboxamide derivatives as Rho-Kinase inhibitors” (CHIESI FARMACEUTICI S.p.A., priority 2016, dated 2020).

How the values were obtained:
Rho kinase 1 = Rho kinase 1 (Homo sapiens, UniProt Q13464); experiment: In vitro Rho kinase inhibitory activity assay (ADP-Glo kit, Myelin Basic Protein substrate); type: biochemical; settings: 10 μM ATP, 25° C., read-out: ROCK1 inhibitory activity (Ki, range of activity)
Procedure: (§1) The effectiveness of compounds of the present invention to inhibit Rho kinase activity can be determined in a 10 μl assay containing 40 mM Tris pH7.5, 20 mM MgCl2 0.1 mg/ml BSA, 50 μM DTT and 2.5 μM peptide substrate (Myelin Basic Protein) using an ADP-Glo kit (Promega). Compounds were dissolved in DMSO such that the final concentration of DMSO was 1% in the assay. All reactions/incubations are performed at 25° C. Compound (2 ul) and either Rho kinase 1 or 2 (4 μl) were mixed and incubated for 30 mins. Reactions were initiated by addition of ATP (4 μl) such that the final concentration of ATP in the assay was 10 μM. After a 1 hour incubation 10 μl of ADP-Glo Reagent was added and after a further 45 minute incubation 20 ul of Kinase Detection Buffer was added and the mixture incubated for a further 30 minutes. The luminescent signal was measured on a luminometer. […] Compounds were tested in dose-response format and the inhibition of kinase activity was calculated at each concentration of compound. To determine the IC50 (concentration of compound required to inhibit 50% of the enzyme activity) data were fit to a plot of % inhibition vs Log10 compound concentration using a sigmoidal fit with a variable slope and fixing the maximum to 100% and the minimum to 0%. To determine the Ki values the Cheng-Prusoff equation was utilized (Ki=IC50/(1+[S]/Km).

Rho kinase 2 = Rho kinase 2 (Homo sapiens, UniProt O75116); experiment: as above; type: biochemical; settings: 10 μM ATP, 25° C., read-out: ROCK2 inhibitory activity (Ki, range of activity)
Rho kinase 2, sequence (O75116 whole entry): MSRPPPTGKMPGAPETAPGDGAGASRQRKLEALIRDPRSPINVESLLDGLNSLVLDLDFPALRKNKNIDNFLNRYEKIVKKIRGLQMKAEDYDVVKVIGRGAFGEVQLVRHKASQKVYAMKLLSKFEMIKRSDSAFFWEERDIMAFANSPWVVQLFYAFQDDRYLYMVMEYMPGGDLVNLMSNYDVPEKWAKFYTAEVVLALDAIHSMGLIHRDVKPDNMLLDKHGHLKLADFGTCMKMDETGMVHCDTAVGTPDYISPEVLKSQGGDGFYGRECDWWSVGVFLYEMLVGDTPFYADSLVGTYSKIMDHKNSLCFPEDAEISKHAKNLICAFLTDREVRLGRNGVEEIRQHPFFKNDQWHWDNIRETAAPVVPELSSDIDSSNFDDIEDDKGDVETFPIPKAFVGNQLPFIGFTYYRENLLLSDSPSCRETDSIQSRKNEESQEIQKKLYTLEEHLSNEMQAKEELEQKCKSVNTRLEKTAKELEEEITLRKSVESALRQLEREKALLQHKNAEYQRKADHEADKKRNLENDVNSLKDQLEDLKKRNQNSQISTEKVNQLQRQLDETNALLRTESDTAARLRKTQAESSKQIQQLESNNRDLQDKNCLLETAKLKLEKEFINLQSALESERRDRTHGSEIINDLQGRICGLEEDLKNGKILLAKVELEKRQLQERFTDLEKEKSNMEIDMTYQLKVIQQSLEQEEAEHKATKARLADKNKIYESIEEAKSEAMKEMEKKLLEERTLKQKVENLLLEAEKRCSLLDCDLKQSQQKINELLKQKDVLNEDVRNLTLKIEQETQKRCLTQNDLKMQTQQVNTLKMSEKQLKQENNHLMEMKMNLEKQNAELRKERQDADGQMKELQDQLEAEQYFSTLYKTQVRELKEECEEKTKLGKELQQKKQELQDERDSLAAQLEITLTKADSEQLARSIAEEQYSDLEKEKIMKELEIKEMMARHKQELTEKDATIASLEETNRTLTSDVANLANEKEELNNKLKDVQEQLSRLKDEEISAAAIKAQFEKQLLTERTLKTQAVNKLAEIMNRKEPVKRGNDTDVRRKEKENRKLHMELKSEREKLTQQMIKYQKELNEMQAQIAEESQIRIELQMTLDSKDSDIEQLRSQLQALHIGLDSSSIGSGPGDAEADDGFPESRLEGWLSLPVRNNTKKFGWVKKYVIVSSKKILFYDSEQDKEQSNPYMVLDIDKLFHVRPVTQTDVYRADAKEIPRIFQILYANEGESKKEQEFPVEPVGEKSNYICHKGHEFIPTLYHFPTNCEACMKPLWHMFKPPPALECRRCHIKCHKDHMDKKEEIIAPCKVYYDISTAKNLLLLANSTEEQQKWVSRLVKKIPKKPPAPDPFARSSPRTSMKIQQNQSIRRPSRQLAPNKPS
Procedure: as §1

Rho kinase 1, sequence (Q13464 whole entry): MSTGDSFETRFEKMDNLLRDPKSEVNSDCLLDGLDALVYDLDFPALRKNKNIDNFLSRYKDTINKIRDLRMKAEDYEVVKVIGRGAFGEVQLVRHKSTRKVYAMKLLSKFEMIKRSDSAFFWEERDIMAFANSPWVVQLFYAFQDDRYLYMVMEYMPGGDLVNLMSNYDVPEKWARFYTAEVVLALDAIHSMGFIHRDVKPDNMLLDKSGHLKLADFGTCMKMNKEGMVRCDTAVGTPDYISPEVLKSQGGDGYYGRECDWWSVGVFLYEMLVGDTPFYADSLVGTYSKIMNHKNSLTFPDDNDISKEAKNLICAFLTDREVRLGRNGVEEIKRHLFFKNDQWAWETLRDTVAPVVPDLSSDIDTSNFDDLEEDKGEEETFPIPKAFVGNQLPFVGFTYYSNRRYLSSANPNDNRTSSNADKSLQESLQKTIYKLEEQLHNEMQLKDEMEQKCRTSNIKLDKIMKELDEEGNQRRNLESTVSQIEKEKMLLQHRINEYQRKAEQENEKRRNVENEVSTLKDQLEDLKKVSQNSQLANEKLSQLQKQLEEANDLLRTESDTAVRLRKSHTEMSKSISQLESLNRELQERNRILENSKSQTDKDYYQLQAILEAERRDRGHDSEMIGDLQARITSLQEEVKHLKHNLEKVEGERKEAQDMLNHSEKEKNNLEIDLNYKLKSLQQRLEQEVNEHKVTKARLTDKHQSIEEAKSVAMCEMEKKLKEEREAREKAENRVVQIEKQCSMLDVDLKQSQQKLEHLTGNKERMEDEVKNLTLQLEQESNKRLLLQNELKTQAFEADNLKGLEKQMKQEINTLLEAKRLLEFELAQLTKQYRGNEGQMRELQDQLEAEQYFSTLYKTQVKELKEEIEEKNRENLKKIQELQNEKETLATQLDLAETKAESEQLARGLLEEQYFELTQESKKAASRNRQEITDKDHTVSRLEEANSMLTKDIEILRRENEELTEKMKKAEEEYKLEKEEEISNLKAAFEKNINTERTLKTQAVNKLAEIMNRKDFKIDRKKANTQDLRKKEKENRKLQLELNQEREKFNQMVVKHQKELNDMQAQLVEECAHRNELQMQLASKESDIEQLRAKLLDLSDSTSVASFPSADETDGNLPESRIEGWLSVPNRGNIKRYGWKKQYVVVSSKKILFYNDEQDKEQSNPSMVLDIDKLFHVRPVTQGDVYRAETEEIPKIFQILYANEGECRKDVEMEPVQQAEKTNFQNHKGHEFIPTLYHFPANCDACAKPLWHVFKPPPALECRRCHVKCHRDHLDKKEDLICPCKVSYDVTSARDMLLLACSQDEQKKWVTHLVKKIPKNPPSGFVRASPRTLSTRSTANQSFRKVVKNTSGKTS

Structure (SMILES)	Ki (Rho kinase 1) [nM]	Ki (Rho kinase 2) [nM]
COCC1CN(Cc2cc3n(n2)C(c2ccc(C(F)(F)F)c(F)c2)C(C(=O)Nc2ccc4cnccc4c2)=C(C)N3)C1 (stereo not shown) [Example 101, 7-(3-fluoro-4-(trifluoromethyl)phenyl)-N-(isoquinolin-6-yl)-2-((3-(methoxymethyl)azetidin-1-yl)methyl)-5-methyl-4,7-dihydropyrazolo[1,5-a]pyrimidine-6-carboxamide]	< 50	< 50
CC1=C(C(=O)Nc2ccc3[nH]ncc3c2)C(c2ccc(C(F)(F)F)cc2F)n2nnnc2N1 (single isomer, unassigned) [Example 26B, 7-(2-fluoro-4-(trifluoromethyl)phenyl)-N-(1H-indazol-5-yl)-5-methyl-4,7-dihydrotetrazolo[1,5-a]pyrimidine-6-carboxamide]	50 to 500	50 to 500
COCc1cc2n(n1)C(c1ccc(C(F)(F)F)c(F)c1)C(C(=O)Nc1ccc3cnccc3c1)=C(C)N2 (stereo not shown) [Example 36, 7-(3-fluoro-4-(trifluoromethyl)phenyl)-N-(isoquinolin-6-yl)-2-(methoxymethyl)-5-methyl-4,7-dihydropyrazolo[1,5-a]pyrimidine-6-carboxamide]	< 50	< 50
CCOC(=O)c1cc2n(n1)C(c1ccc(C(F)F)c(F)c1)C(C(=O)Nc1ccc3cnccc3c1)=C(C)N2 (stereo not shown) [Example 115, ethyl 7-(4-(difluoromethyl)-3-fluorophenyl)-6-(isoquinolin-6-ylcarbamoyl)-5-methyl-4,7-dihydropyrazolo[1,5-a]pyrimidine-2-carboxylate]	< 50	< 50
CCOC(=O)c1cc2n(n1)C(c1ccc(C(F)(F)F)c(F)c1)C(C(=O)Nc1ccc3cnccc3n1)=C(C)N2 (stereo not shown) [Example 113, ethyl 6-((1,6-naphthyridin-2-yl)carbamoyl)-7-(3-fluoro-4-(trifluoromethyl)phenyl)-5-methyl-4,7-dihydropyrazolo[1,5-a]pyrimidine-2-carboxylate]	< 50	< 50
CC1=C(C(=O)Nc2ccc3[nH]ncc3c2)C(c2ccc(F)cc2)n2ncc(C#N)c2N1 (stereo not shown) [Example 18, 3-cyano-7-(4-fluorophenyl)-N-(1H-indazol-5-yl)-5-methyl-4,7-dihydropyrazolo[1,5-a]pyrimidine-6-carboxamide]	< 50	< 50
CC1=C(C(=O)Nc2ccc3cnccc3n2)C(c2ccc(C(F)(F)F)c(F)c2)n2nc(CN(C)C)cc2N1 (stereo not shown) [Example 123, 2-((dimethylamino)methyl)-7-(3-fluoro-4-(trifluoromethyl)phenyl)-5-methyl-N-(1,6-naphthyridin-2-yl)-4,7-dihydropyrazolo[1,5-a]pyrimidine-6-carboxamide]	< 50	< 50
CCOC(=O)c1cc2n(n1)C(c1ccc(C(F)(F)F)cc1)C(C(=O)Nc1ccc3[nH]ncc3c1)=C(C)N2 (stereo not shown) [Example 2, ethyl 6-((1H-indazol-5-yl)carbamoyl)-5-methyl-7-(4-(trifluoromethyl)phenyl)-4,7-dihydropyrazolo[1,5-a]pyrimidine-2-carboxylate]	< 50	< 50
CC1=C(C(=O)Nc2ccc3cnccc3c2)C(c2ccc(C(F)(F)F)c(F)c2F)n2nc(CN(C)C)cc2N1 (stereo not shown) [Example 122, 7-(2,3-difluoro-4-(trifluoromethyl)phenyl)-2-((dimethylamino)methyl)-N-(isoquinolin-6-yl)-5-methyl-4,7-dihydropyrazolo[1,5-a]pyrimidine-6-carboxamide]	< 50	< 50
CCOC(=O)c1cc2n(n1)C(C1CCCCC1)C(C(=O)Nc1ccc3[nH]ncc3c1)=C(C)N2 (stereo not shown) [Example 14, ethyl 6-((1H-indazol-5-yl)carbamoyl)-7-cyclohexyl-5-methyl-4,7-dihydropyrazolo[1,5-a]pyrimidine-2-carboxylate]	50 to 500	< 50
CC1=C(C(=O)Nc2ccc3[nH]ncc3c2)C(c2ccc(C)cc2)n2nc(CO)cc2N1 (stereo not shown) [Example 67, 2-(hydroxymethyl)-N-(1H-indazol-5-yl)-5-methyl-7-(p-tolyl)-4,7-dihydropyrazolo[1,5-a]pyrimidine-6-carboxamide]	< 50	< 50
COC1CCN(Cc2cc3n(n2)C(c2ccc(C(F)(F)F)c(F)c2)C(C(=O)Nc2ccc4cnccc4c2)=C(C)N3)CC1 (stereo not shown) [Example 99, 7-(3-fluoro-4-(trifluoromethyl)phenyl)-N-(isoquinolin-6-yl)-2-((4-methoxypiperidin-1-yl)methyl)-5-methyl-4,7-dihydropyrazolo[1,5-a]pyrimidine-6-carboxamide]	< 50	< 50
CCOC(=O)c1cc2n(n1)C(c1ccc(O)c(F)c1)C(C(=O)Nc1ccc3cnccc3c1)=C(C)N2 (stereo not shown) [Example 10, ethyl 7-(3-fluoro-4-hydroxyphenyl)-6-(isoquinolin-6-ylcarbamoyl)-5-methyl-4,7-dihydropyrazolo[1,5-a]pyrimidine-2-carboxylate]	< 50	< 50
CSc1cc2n(n1)C(c1ccc(C(F)(F)F)c(F)c1)C(C(=O)Nc1ccc3cnccc3c1)=C(C)N2 (stereo not shown) [Example 117, 7-(3-fluoro-4-(trifluoromethyl)phenyl)-N-(isoquinolin-6-yl)-5-methyl-2-(methylthio)-4,7-dihydropyrazolo[1,5-a]pyrimidine-6-carboxamide]	< 50	< 50
CCOC(=O)c1cc2n(n1)C(CC(C)C)C(C(=O)Nc1ccc3[nH]ncc3c1)=C(C)N2 (stereo not shown) [Example 13, ethyl 6-((1H-indazol-5-yl)carbamoyl)-7-isobutyl-5-methyl-4,7-dihydropyrazolo[1,5-a]pyrimidine-2-carboxylate]	50 to 500	50 to 500

Further lines, results first:

Ki (Rho kinase 1) [nM]	Ki (Rho kinase 2) [nM]	Structure (SMILES)
> 500	> 500	CC1=C(C(=O)Nc2ccc3[nH]ncc3c2)C(c2ccc(Cl)nc2)n2nc(C(F)(F)F)cc2N1 (single isomer, unassigned) [Example 32A, 7-(6-chloropyridin-3-yl)-N-(1H-indazol-5-yl)-5-methyl-2-(trifluoromethyl)-4,7-dihydropyrazolo[1,5-a]pyrimidine-6-carboxamide]
< 50	< 50	CC1=C(C(=O)Nc2ccc3cnccc3c2)C(c2ccc(C(F)(F)F)c(F)c2)n2nc(C(=O)NCCN3CCCCC3)nc2N1 (single isomer, unassigned) [Example 129a, 7-(3-fluoro-4-(trifluoromethyl)phenyl)-N6-(isoquinolin-6-yl)-5-methyl-N2-(2-(piperidin-1-yl)ethyl)-4,7-dihydro-[1,2,4]triazolo[1,5-a]pyrimidine-2,6-dicarboxamide]
50 to 500	50 to 500	CC1=C(C(=O)Nc2ccc3[nH]ncc3c2)C(c2ccc(C(F)(F)F)cc2)n2nnnc2N1 (single isomer, unassigned) [Example 27B, N-(1H-indazol-5-yl)-5-methyl-7-(4-(trifluoromethyl)phenyl)-4,7-dihydrotetrazolo[1,5-a]pyrimidine-6-carboxamide]
< 50	< 50	CC1=C(C(=O)Nc2ccc3cnccc3c2)C(C2COc3ccccc3O2)n2nc(CO)cc2N1 (single isomer, unassigned) [Example 72A, 7-(2,3-dihydrobenzo[b][1,4]dioxin-2-yl)-2-(hydroxymethyl)-N-(isoquinolin-6-yl)-5-methyl-4,7-dihydropyrazolo[1,5-a]pyrimidine-6-carboxamide]
50 to 500	50 to 500	CC1=C(C(=O)Nc2ccc3cnccc3c2)C(c2ccc(C(F)(F)F)c(F)c2)n2nc(CN3CCN(C)CC3)cc2N1 (single isomer, unassigned) [Example 96A, 7-(3-fluoro-4-(trifluoromethyl)phenyl)-N-(isoquinolin-6-yl)-5-methyl-2-((4-methylpiperazin-1-yl)methyl)-4,7-dihydropyrazolo[1,5-a]pyrimidine-6-carboxamide]
< 50	< 50	CC1=C(C(=O)Nc2ccc3cnccc3c2)C(c2ccc(C(F)(F)F)c(F)c2)n2nc(C3CCN(C(=O)CCN4CCCCC4)CC3)cc2N1 (single isomer, unassigned) [135B]
50 to 500	50 to 500	CC1=C(C(=O)Nc2ccc3cnccc3c2)C(C2Cc3ccccc3C2)n2nc(CO)cc2N1 (single isomer, unassigned) [Example 60B, 7-(2,3-dihydro-1H-inden-2-yl)-2-(hydroxymethyl)-N-(isoquinolin-6-yl)-5-methyl-4,7-dihydropyrazolo[1,5-a]pyrimidine-6-carboxamide]
	< 50	CC1=C(C(=O)Nc2ccc3cnccc3c2)C(c2ccc(C(F)(F)F)c(F)c2)n2nc(NC(=O)CCN3CCCCC3)cc2N1 (single isomer, unassigned) [131B]
< 50		CC1=C(C(=O)Nc2ccc3cnccc3c2)C(c2ccc(C(F)(F)F)c(F)c2)n2nc(C(=O)NCCN3CCCCC3)nc2N1 (single isomer, unassigned) [Example 129b, 7-(3-fluoro-4-(trifluoromethyl)phenyl)-N6-(isoquinolin-6-yl)-5-methyl-N2-(2-(piperidin-1-yl)ethyl)-4,7-dihydro-[1,2,4]triazolo[1,5-a]pyrimidine-2,6-dicarboxamide]
